Results reported in patent US8183239B2, “Substituted piperazines and piperidines as modulators of the neuropeptide Y2 receptor” (Janssen Pharmaceutica NV, priority 2005, dated 2012).

Molecular target: T1, Y2 receptors (Homo sapiens, UniProt P49146)
T1 construct: endogenous in cells; host or cells: KAN-Ts cells (membranes)
T1 sequence (P49146 1-381): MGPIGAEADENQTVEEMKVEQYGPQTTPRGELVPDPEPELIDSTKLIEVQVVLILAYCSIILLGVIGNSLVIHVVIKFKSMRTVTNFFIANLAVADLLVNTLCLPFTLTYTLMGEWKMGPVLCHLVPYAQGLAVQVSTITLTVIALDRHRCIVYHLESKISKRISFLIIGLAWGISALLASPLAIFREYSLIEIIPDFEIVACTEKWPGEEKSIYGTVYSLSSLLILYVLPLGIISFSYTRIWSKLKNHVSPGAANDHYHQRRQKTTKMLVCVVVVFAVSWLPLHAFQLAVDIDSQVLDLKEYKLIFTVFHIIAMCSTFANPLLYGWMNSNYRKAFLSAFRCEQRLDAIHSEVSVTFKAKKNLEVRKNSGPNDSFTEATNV
Assay: Radioligand binding assay ([125I]PYY, KAN-Ts cell membranes)
Conditions: Table 2, [125I]PYY 80 pM, average of results, read-out: IC50
In short: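 Membranes from KAN-Ts cells endogenously expressing Y2 incubated 1 h at rt with 80 pM [^125I]PYY ± test compound in HEPES buffer with NaCl, Ca^2+ and Mg^2+. Bound radioactivity collected by filtration; specific binding defined with […]. IC50 from sigmoidal fit, averaged over 3-8 duplicate experiments.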

CCN(CC)C(=O)C(c1ccccc1)N1CCN(c2c(F)cc(NC(=O)C3CCCC3)cc2F)CC1 (centres unmarked) [Example 230, Cyclopentanecarboxylic acid {4-[4-(diethylcarbamoyl-phenyl-methyl)-piperazin-1-yl]-3,5-difluoro-phenyl}-amide]
IC50: 150 nM

CCN(CC)C(=O)C(c1ccccc1)N1CCN(c2ccc(NC(=O)C3CCCC3)cc2C)CC1 (centres unmarked) [Example 231, Cyclopentanecarboxylic acid {4-[4-(diethylcarbamoyl-phenyl-methyl)-piperazin-1-yl]-3-methyl-phenyl}-amide]
IC50: 200 nM

CCC(CC)C(=O)Nc1ccc(N2CCN(C(C(=O)N(CC)CC)c3ccccc3)CC2)c(C)c1 (centres unmarked) [Example 232, N-{4-[4-(Diethylcarbamoyl-phenyl-methyl)-piperazin-1-yl]-3-methyl-phenyl}-2-ethyl-butyramide]
IC50: 210 nM

CCC(CC)C(=O)Nc1ccc(N2CCN(C(C(=O)N(CC)CC)c3ccccc3)CC2)c(F)c1F (centres unmarked) [Example 233, N-{4-[4-(Diethylcarbamoyl-phenyl-methyl)-piperazin-1-yl]-2,3-difluoro-phenyl}-2-ethyl-butyramide]
IC50: 270 nM

CCC(CC)C(=O)Nc1ccc(N2CCC(C(C#N)c3ccccc3)CC2)c(F)c1 (centres unmarked) [Example 234, N-{4-[4-(Cyano-phenyl-methyl)-piperidin-1-yl]-3-fluoro-phenyl}-2-ethyl-butyramide]
IC50: 280 nM

CCNC(=O)C(c1ccccc1)N1CCN(c2c(F)cc(NC(=O)[C@@H]3CCOC3)cc2F)CC1 (stereo partly drawn) [Example 236, (R)-Tetrahydro-furan-3-carboxylic acid {4-[4-(ethylcarbamoyl-phenyl-methyl)-piperazin-1-yl]-3,5-difluoro-phenyl}-amide]
IC50: 900 nM

CCC(CC)C(=O)Nc1ccc(N2CCN(C(C(=O)N(CC)CC)c3ccccc3)CC2)cc1C#N (centres unmarked) [Example 237, N-{2-Cyano-4-[4-(diethylcarbamoyl-phenyl-methyl)-piperazin-1-yl]-phenyl}-2-ethyl-butyramide]
IC50: 1100 nM

CCN(CC)C(=O)C(c1ccccc1)N1CCN(c2ccc(NC(=O)C3CCCC3)cc2OC)CC1 (centres unmarked) [Example 238, Cyclopentanecarboxylic acid {4-[4-(diethylcarbamoyl-phenyl-methyl)-piperazin-1-yl]-3-methoxy-phenyl}-amide]
IC50: 1300 nM

CCNC(=O)C(c1ccccc1)N1CCN(c2c(F)cc(NC(=O)C3CCCC3)cc2F)CC1 (centres unmarked) [Example 239, Cyclopentanecarboxylic acid {4-[4-(ethylcarbamoyl-phenyl-methyl)-piperazin-1-yl]-3,5-difluoro-phenyl}-amide]
IC50: 2500 nM

C#Cc1cc(NC(=O)C(CC)CC)ccc1N1CCN(C(C(=O)N(CC)CC)c2ccccc2)CC1 (centres unmarked) [Example 240, N-{4-[4-(Diethylcarbamoyl-phenyl-methyl)-piperazin-1-yl]-3-ethynyl-phenyl}-2-ethyl-butyramide]
IC50: 18 nM

CCN(CC)C(=O)C(c1ccccc1)N1CCN(c2ccc(NC(=O)CC3CC3)cc2F)CC1 (centres unmarked) [Example 241, 2-{4-[4-(2-Cyclopropyl-acetylamino)-2-fluoro-phenyl]-piperazin-1-yl}-N,N-diethyl-2-phenyl-acetamide]
IC50: 300 nM

CCN(CC)C(=O)C(c1ccccc1)N1CCN(c2ccc(NC(=O)CC3CCCC3)cc2F)CC1 (centres unmarked) [Example 242, 2-{4-[4-(2-Cyclopentyl-acetylamino)-2-fluoro-phenyl]-piperazin-1-yl}-N,N-diethyl-2-phenyl-acetamide]
IC50: 3000 nM

CCN(CC)C(=O)C(c1ccccc1)N1CCN(c2ccc(NC(=O)C3CC3C)cc2F)CC1 (centres unmarked) [Example 243, 2-Methyl-cyclopropanecarboxylic acid {4-[4-(diethylcarbamoyl-phenyl-methyl)-piperazin-1-yl]-3-fluoro-phenyl}-amide]
IC50: 120 nM

CCN(CC)C(=O)C(c1ccccc1)N1CCN(c2ccc(NC(=O)C3CCCC3)cc2F)CC1 (centres unmarked) [Example 244, Cyclopentanecarboxylic acid {4-[4-(diethylcarbamoyl-phenyl-methyl)-piperazin-1-yl]-3-fluoro-phenyl}-amide]
IC50: 80 nM

CCC(CC)NC(=O)c1ccc(N2CCN(C(C(=O)N(CC)CC)c3ccccc3)CC2)c(F)c1 (centres unmarked) [Example 245, 4-[4-(Diethylcarbamoyl-phenyl-methyl)-piperazin-1-yl]-N-(1-ethyl-propyl)-3-fluoro-benzamide]
IC50: 3000 nM

CCN(CC)C(=O)C(c1ccccc1)N1CCN(c2ccc(CNC(=O)C(C)CC(F)(F)F)cc2F)CC1 (centres unmarked) [Example 246, N-{4-[4-(Diethylcarbamoyl-phenyl-methyl)-piperazin-1-yl]-3-fluoro-benzyl}-4,4,4-trifluoro-2-methyl-butyramide]
IC50: 2200 nM

CCN(CC)C(=O)C(c1ccccc1)N1CCN(c2ccc(CNC(=O)[C@H]3CCOC3)cc2F)CC1 (stereo partly drawn) [Example 247, (S)-Tetrahydro-furan-3-carboxylic acid 4-[4-(diethylcarbamoyl-phenyl-methyl)-piperazin-1-yl]-3-fluoro-benzylamide]
IC50: ≥ 10000 nM

CCC(CC)C(=O)Nc1ccc(N2CCC([C@@H](C(=O)N(CC)CC)c3ccccc3)CC2)c(F)c1 [Example 248, (R)-(−)-N-{4-[4-(Diethylcarbamoyl-phenyl-methyl)-piperidin-1-yl]-3-fluoro-phenyl}-2-ethyl-butyramide]
IC50: 13 nM

CCC(CC)C(=O)Nc1ccc(N2CCC([C@H](C(=O)N(CC)CC)c3ccccc3)CC2)c(F)c1 [Example 249, (S)—(+)-N-{4-[4-(Diethylcarbamoyl-phenyl-methyl)-piperidin-1-yl]-3-fluoro-phenyl}-2-ethyl-butyramide]
IC50: 100 nM

CCC(CC)C(=O)Nc1ccc(N2CCN(C(C(=O)N(CC)CC)c3ccc(OC)cc3)CC2)c(C#N)c1 (centres unmarked) [Example 250, N-(3-Cyano-4-{4-[diethylcarbamoyl-(4-methoxy-phenyl)-methyl]-piperazin-1-yl}-phenyl)-2-ethyl-butyramide]
IC50: 9 nM

CCC(CC)C(=O)Nc1ccc(N2CCN(C(C(=O)N(CC)CC)c3ccc(OC)cc3)CC2)c(F)c1 (centres unmarked) [Example 251, N-(4-{4-[Diethylcarbamoyl-(4-methoxy-phenyl)-methyl]-piperazin-1-yl}-3-fluoro-phenyl)-2-ethyl-butyramide]
IC50: 18 nM

CCC(CC)C(=O)Nc1ccc(N2CCN(C(C(=O)N(CC)CC)c3ccc(O)cc3)CC2)c(F)c1 (centres unmarked) [Example 252, N-(4-{4-[Diethylcarbamoyl-(4-hydroxy-phenyl)-methyl]-piperazin-1-yl}-3-fluoro-phenyl)-2-ethyl-butyramide]
IC50: 104 nM

CCC(CC)C(=O)Nc1ccc(N2CCN(C(C(=O)N(CC)CC)c3ccc(Cl)cc3)CC2)c(F)c1 (centres unmarked) [Example 253, N-(4-{4-[(4-Chloro-phenyl)-diethylcarbamoyl-methyl]-piperazin-1-yl}-3-fluoro-phenyl)-2-ethyl-butyramide]
IC50: 102 nM

CCC(CC)C(=O)Nc1ccc(N2CCN(C(C(=O)N(CC)CC)c3ccc(C#N)cc3)CC2)c(F)c1 (centres unmarked) [Example 254, N-(4-{4-[(4-Cyano-phenyl)-diethylcarbamoyl-methyl]-piperazin-1-yl}-3-fluoro-phenyl)-2-ethyl-butyramide]
IC50: 44 nM

CCOc1ccc(C(C(=O)N(CC)CC)N2CCN(c3ccc(NC(=O)C(CC)CC)cc3F)CC2)cc1 (centres unmarked) [Example 255, N-(4-{4-[Diethylcarbamoyl-(4-ethoxy-phenyl)-methyl]-piperazin-1-yl}-3-fluoro-phenyl)-2-ethyl-butyramide]
IC50: 44 nM

CCC(CC)C(=O)Nc1ccc(N2CCN(C(C(=O)N(CC)CC)c3ccc(OC(F)(F)F)cc3)CC2)c(F)c1 (centres unmarked) [Example 256, N-(4-{4-[Diethylcarbamoyl-(4-trifluoromethoxy-phenyl)-methyl]-piperazin-1-yl}-3-fluoro-phenyl)-2-ethyl-butyramide]
IC50: 26 nM

CCC(CC)C(=O)Nc1ccc(N2CCN(C(C(=O)N(CC)CC)c3ccccc3)C(C)C2)c(F)c1 (centres unmarked) [Example 257, N-{4-[4-(Diethylcarbamoyl-phenyl-methyl)-3-methyl-piperazin-1-yl]-3-fluoro-phenyl}-2-ethyl-butyramide]
IC50: 68 nM

CCC(CC)C(=O)Nc1ccc(N2CCN(C(C(=O)N(CC)CC)c3ccccc3)CC2C)c(F)c1 (centres unmarked) [Example 258]
IC50: 145 nM

CCC(CC)C(=O)Nc1ccc(N2CCN(C(C(=O)c3ccccc3)c3ccccc3)CC2)c(F)c1 (centres unmarked) [Example 259, 2-Ethyl-N-{3-fluoro-4-[4-(2-oxo-1,2-diphenyl-ethyl)-piperazin-1-yl]-phenyl}-butyramide]
IC50: 70 nM

CCC(CC)C(=O)Nc1ccc(N2CCN(C(C(=O)N(CC)CC)c3ccccn3)CC2)c(F)c1 (centres unmarked) [Example 260, N-{4-[4-(Diethylcarbamoyl-pyridin-2-yl-methyl)-piperazin-1-yl]-3-fluoro-phenyl}-2-ethyl-butyramide]
IC50: 100 nM

CCC(CC)C(=O)Nc1ccc(N2CCN(C(C(=O)N3CCC(F)(F)C3)c3ccccn3)CC2)c(F)c1 (centres unmarked) [Example 261, N-(4-{4-[2-(3,3-Difluoro-pyrrolidin-1-yl)-2-oxo-1-pyridin-2-yl-ethyl]-piperazin-1-yl}-3-fluoro-phenyl)-2-ethyl-butyramide]
IC50: 130 nM

CCC(CC)C(=O)Nc1ccc(N2CCN(C(C(=O)OC)c3ccc(O)cc3)CC2)c(F)c1 (centres unmarked) [Example 262, {4-[4-(2-Ethyl-butyrylamino)-2-fluoro-phenyl]-piperazin-1-yl}-(4-hydroxy-phenyl)-acetic acid methyl ester]
IC50: 162 nM
